Source: patent US20130289019A1, “METHODS OF TREATING BEHAVIORIAL AND/OR MENTAL DISORDERS” (AMAZING GRACE, INC., priority 2012, published 2013)
Entries after “also recorded” stand apart in the source; their conditions may differ. Marks after values point to notes of the source that are not given here.

How the values were obtained:
Assay type in all cases: in vivo, rat
[1] = system: NAcShell of rats (ICSS reward threshold); assay: discrete trial current-threshold intracranial self-stimulation (ICSS), drugs infused into NAcShell; conditions: for ICSS threshold change: vs baseline, N=2; for ICSS threshold, effect in words: infused into the NAcShell during the ICSS procedure
Text: FIG. 2 is a graph illustrating the effect of antagonism of M1 mAChR and agonism of mAChR in the nucleus accumbens shell (NAcShell). The discrete trial current-threshold intracranial self-stimulation paradigm was used to assess the effect of cholinergic drugs infused directly into the NAcShell on reward, independent of performance. See below and Markou and Koob (Neuropsychopharmacology. 1991 January; 4(1):17-26) for detailed description of the paradigm. Thresholds measured in a rat vary little in the 4 pre-drug days (<7% of the mean or baseline). The non-selective mAChR agonist arecoline dose-dependently elevates threshold (0.01 M, +11%; 1.0 M, +57.5%, N=2). Pirenzepine dihydrochloride (Sigma-Aldrich, Saint Louis, Mo.), a selective M1 mAChR antagonist, dose-dependently lowers threshold (0.1 mM, −7%; 100 mM, […], N=2). The drugs were infused into the NAcShell at a steady rate by reversed microdialysis over the hour required to complete threshold testing.
Anhedonia may be assessed by applying the intracranial self-stimulation (ICSS) paradigm. The ICSS may be used to assess anhedonia, reward, hedonic capacity, and motivation in animals. In this paradigm, a rat performs an operant task (e.g. pressing a bar) to receive rewarding electrical stimulation through electrodes implanted into specific areas of the brain, including the lateral hypothalamus (LH), medial forebrain bundle (MFB), ventral tegmental area containing dopamine neurons (VTA), the nucleus accumbens shell or nucleus accumbens medial core, ventral pallidum, orbitofronal cortex (OPFC), medial frontal cortex (MPFC), cingulate cortex, lateral bed nucleus of the stria terminalis of the amygdala (BNST), mediodorsal thalamus (mdTham), lateral septum, the dorsal raphe containing serotonin neurons, the locus coeruleus containing norepinephrine neurons (see FIG. 1). As noted above, these regions supporting ICSS form an interconnected network commonly referred to as the “brain reward circuitry.”
A skilled artisan would recognize that variations of the ICSS paradigm may be used. For example, one of the most commonly used ICSS procedures, which has been experimentally validated and has shown to be reward-selective, is the discrete-trial current-intensity threshold procedure. This procedure directly and reliably assesses an animal's sensitivity to rewards, hedonic capacity, and motivation, independent of performance, i.e., ability to move (for detailed procedures see Markou and Koob, Neuropsychopharmacology. 1991 January; 4(1):17-26). The discrete trial current-intensity threshold ICSS procedure provides unique ways to investigate the anatomical and neurochemical basis of reward and motivation and is an important tool for assessing of the reward-facilitating or anhedonic effects of various drugs or medications.
Lowering of ICSS thresholds indicates facilitation of brain stimulation reward, whereas elevation in ICSS threshold indicates diminished reward value of the stimulation and thus an anhedonic state. Acute administration of most drugs of abuse, including cocaine, amphetamine, nicotine, morphine, and heroin, lower ICSS thresholds in experimental animals, logically because of their rewarding values. By contrast, withdrawal from chronic administration of these drugs elevates ICSS thresholds, indicating an anhedonic state that resembles the negative affective and motivational state of the drug withdrawal syndrome experienced by humans. Elevated ICSS threshold also occurs in animal models of depression. Such elevation in ICSS threshold reflects decreased sensitivity to rewarding stimuli, decreased hedonic capacity or motivation, and/or an aversive and dysphoric affective state of the animal model of depression. Importantly, administration of antidepressants normalizes or lowers ICSS threshold in such animals, indicating a reversal of reward and motivational deficits.
FIG. 2 is a graph illustrating the effect of antagonism of M1 mAChR and agonism of mAChR in the NAcShell. […]

[2] = system: rats (NAcShell injection); assay: Porsolt swim test after injection of mAChR agonists and antagonists in the NAcShell; conditions: for Drug (sec), mean swimming time / Percent change of swimming time vs Ringer / Time diff (sec), drug vs Ringer: 600 sec swim test
Protocol: FIG. 3 is a graph illustrating swimming time following injections of cholinergic drugs in NAc (black bars), compared to Ringer (white bars). (A) Local injection of arecoline, a muscarinic agonist, decreased swim time; the animals quickly gave up (40 μg, −41%, n=8, t=3.53, p<0.01; and 80 μg, −66%, n=6, t=4.12, p<0.01). (B) Pirenzepine, an M1 antagonist, increased swimming escape attempts in the manner of an antidepressant, but note this is a local injection (17.5 μg, n=8, +39%, t=3.63, p<0.01; 35 μg, +40%, n=9, t=7.15, p<0.001). […] (D) Local gallamine, an M2 antagonist, decreased swim time (0.13 μg/side, −21%, n=7, t=3.72, p<0.01; 0.44 μg/side, −37%, n=8, t=2.95, p<0.05; 0.88 μg/side, −36%, n=7, t=4.64, p<0.01). Swimming time following Ringer is normalized to 100%, with each bar representing the mean of the normalized responses across subjects. Swimming time following a drug injection is expressed as a percentage of the swimming time following vehicle injection on a different day. Significant changes in the within-subject response to drug injections are indicated with asterisks (* p<0.05, ** p<0.01, *** p<0.001).
The Porsolt swim test is an animal model of depression widely used as a screen for drugs with potential antidepressant effects in humans and for elucidating the pharmacological mechanisms of action of antidepressant medications. For example, the following procedure may be used:
On the first day of this test (day 1), a rodent (typically a rat) is placed in a cylindrical water tank for 15 min. Then after 24 hours (day 2) and 48 hours (day 3), drug and Ringer are administered to the animal in counterbalanced order. Immediately following each injection, the animal is placed in the swim test for 10 min. The length of time it swims during the swim tests is recorded. “Swimming” is defined by escape behaviors (i.e. diving, rigorous paddling with all four legs, circling the tank, and clambering at the tank walls). ‘Immobility’ was scored as floating and treading water just enough to keep the nose above water. Typically, after the first swimming session, animals become behaviorally depressed as shown by swimming less on later test days (day 2 or 3). […] Antidepressants increase swimming without affecting locomotor activity, whereas non-antidepressant drugs such as certain psychostimulants may also decrease immobility, but also increase locomotor activity in the open field test. Therefore, to screen a potential antidepressant, the swim test is typically followed by test for hyperactivity in the open field.
Rats were placed in the 600 sec (10 min) swim test following injections of drugs in the NAcShell. When not swimming, rats floated or made minimal forepaw movements to keep their noses above water. Each rat received one drug counterbalanced with Ringer on a separate day. The shorter control swim times for the gallamine group, relative to groups that received other drugs, may have been due to a seasonal difference. Control injections, shown in the last line, were made 2 mm dorsal to the accumbens (Pirenzepine Ctrl). Asterisks indicate significant difference between drug and Ringer (* p<0.05; ** p<0.01; *** p<0.001).

[3] = system: rats (NAcShell injection); assay: locomotor activity in a photocell cage after drug injection in the NAcShell; conditions: 10 min following injection in NAcShell; arecoline 40 μg, pirenzepine 35 μg, scopolamine 1 μg, gallamine 0.88 μg
Protocol: FIG. 4 is a graph illustrating the effects of cholinergic drugs on locomotor activity in a photocell cage. Activity in the 10 min following drug injection in the NAcShell (black bars) is expressed as a percentage of control injections normalized to 100% (white bars).
FIG. 4 illustrates the effects of cholinergic drugs on locomotor activity in a photocell cage. Activity in the 10 min following drug injection in the NAc (black bars) is expressed as a percentage of control injections normalized to 100% (white bars).

[4] = system: extracellular ACh in NAcShell; assay: ACh efflux in NAcShell, infusion by reverse dialysis in freely moving rats; conditions: for extracellular ACh: 20 min infusion in NAcShell by reverse dialysis, oxotremorine 4 mM (hour following infusion), gallamine 1 mM, scopolamine 10 mM probe concentration
Protocol: To determine if the M2 drugs act presynaptically on autoreceptors controlling ACh release, freely moving rats received infusions of an M2 agonist or antagonist in the NAcShell for 20 min by reverse dialysis while extracellular ACh was measured.
To determine if the M2 drugs act presynaptically on autoreceptors controlling ACh release, freely moving rats received infusions of an M2 agonist or antagonist in the NAc for 20 min by reverse dialysis while extracellular ACh was measured.

[5] = 17.5 μg/side, control injections 2 mm dorsal to the accumbens

## COC(=O)C1=CCCN(C)C1 [Arecholine]
[1]; arecoline 0.01 M infused into NAcShell by reversed microdialysis over 1 h
  ICSS threshold change: +11%
[1]; arecoline 1.0 M infused into NAcShell by reversed microdialysis over 1 h
  ICSS threshold change: +57.5%
[1]
  ICSS threshold, effect in words: dose-dependently increases ICSS threshold
[2]; 40.0 μg/side in NAcShell
  Drug (sec), mean swimming time: 235 ± 17** sec
  Percent change of swimming time vs Ringer: −41%
  Time diff (sec), drug vs Ringer: -162 s
[2]; 40.0 μg/side in NAcShell, listed as arecoline
  Percent change of swimming time vs Ringer: −41%
[2]; 80.0 μg/side in NAcShell
  Drug (sec), mean swimming time: 109 ± 34** sec
  Percent change of swimming time vs Ringer: −66%
  Time diff (sec), drug vs Ringer: -209 s
[2]; 80.0 μg/side in NAcShell, listed as arecoline
  Percent change of swimming time vs Ringer: −66%
[3]
  locomotor activity vs Ringer, in words: significantly decreased

## CC[N+](CC)(CC)CCOc1cccc(OCC[N+](CC)(CC)CC)c1OCC[N+](CC)(CC)CC [Gallamine]
[2]; 0.13 μg/side in NAcShell
  Drug (sec), mean swimming time: 155 ± 26** sec
  Percent change of swimming time vs Ringer: −21%
  Time diff (sec), drug vs Ringer: -41 s
[2]; 0.13 μg/side in NAcShell, listed as gallamine
  Percent change of swimming time vs Ringer: −21%
[2]; 0.44 μg/side in NAcShell
  Drug (sec), mean swimming time: 148 ± 24* sec
  Percent change of swimming time vs Ringer: −37%
  Time diff (sec), drug vs Ringer: -88 s
[2]; 0.44 μg/side in NAcShell, listed as gallamine
  Percent change of swimming time vs Ringer: −37%
[3]
  locomotor activity vs Ringer, in words: not significantly different from Ringer
[4]
  extracellular ACh: 437 % of baseline
[4]; gallamine 1 mM: time following the infusion, scopolamine 10 mM
  duration of the ACh increase (until return to baseline): 20 min

## CN1CCN(CC(=O)N2c3ccccc3C(=O)Nc3cccnc32)CC1 [Pirenzepine]
[1]
  ICSS threshold, effect in words: dose-dependently lowers ICSS threshold
[1]; pirenzepine 0.1 mM infused into NAcShell by reversed microdialysis over 1 h
  ICSS threshold change: −7%
[1]; pirenzepine 100 mM infused into NAcShell by reversed microdialysis over 1 h
  ICSS threshold change: 14%
[2]; 17.5 μg/side in NAcShell
  Drug (sec), mean swimming time: 480 ± 38** sec
  Time diff (sec), drug vs Ringer: +134 sec
[2]; [5]
  Drug (sec), mean swimming time: 301 ± 34 s
  Percent change of swimming time vs Ringer: −10%
  Time diff (sec), drug vs Ringer: -36 s
[2]; 35.0 μg/side in NAcShell
  Drug (sec), mean swimming time: 412 ± 26*** sec
  Time diff (sec), drug vs Ringer: +117 sec
[2]; infusion into the NAcShell
  immobility in the swim test, effect in words: decreases immobility
[3]
  locomotor activity vs Ringer, in words: not significantly different from Ringer; also recorded: without altering activity in the open field

## O=C1CCCN1CC#CCN1CCCC1 [oxotremorine]
[4]
  extracellular ACh: 55 % of baseline
[4]; inventor's data (Chau et al. 2001)
  ACh level in the NAc, effect in words: decreasing ACh
